Key:
Assay in all cases: relative viability (nuclei count vs DMSO), 5 days (fraction); higher = more cells survive
[1] = compound: CCCS(=O)(=O)Nc1ccc(F)c(C(=O)c2c[nH]c3ncc(-c4ccc(Cl)cc4)cc23)c1F [Vemurafenib] + Cc1nc(NC(=O)N2CCC[C@H]2C(N)=O)sc1-c1ccnc(C(C)(C)C(F)(F)F)c1 [Alpelisib] (partner 2 µM)
Summary of the method: (§1)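 Lung cancer cell lines in 1536-well plates got either a single drug or a fixed anchor-drug dose together with five library-drug doses (not always all listed) in √10 steps, by pin tool, on the day after seeding. Nuclei were counted after 5 days, and relative viability is the treated-to-vehicle ratio of nuclei counts. Values are medians of duplicate plates.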

[2] = compound: COc1cccc2cc(-c3nc([C@H]4CC[C@H](C(=O)O)CC4)n4ncnc(N)c34)[nH]c12 [OSI-027] + CS(=O)(=O)N1CCN(Cc2cc3nc(-c4cccc5[nH]ncc45)nc(N4CCOCC4)c3s2)CC1 [Pictilisib] (partner 1 µM)
Summary of the method: as §1

[3] = compound: Cc1nc(NC(=O)N2CCC[C@H]2C(N)=O)sc1-c1ccnc(C(C)(C)C(F)(F)F)c1 [Alpelisib] + CC(=O)Nc1cccc(-n2c(=O)n(C3CC3)c(=O)c3c(Nc4ccc(I)cc4F)n(C)c(=O)c(C)c32)c1 [Trametinib] (partner 0.02 µM)
Summary of the method: as §1

[4] = compound: Cc1nc(NC(=O)N2CCC[C@H]2C(N)=O)sc1-c1ccnc(C(C)(C)C(F)(F)F)c1 [Alpelisib] + Nc1nc2[nH]cc(CCc3ccc(C(=O)N[C@@H](CCC(=O)O)C(=O)O)cc3)c2c(=O)[nH]1 [Pemetrexed] (partner 0.2 µM)
Summary of the method: as §1

Row | Cell Line | relative viability ([1]; first compound 0.03162 µM) | relative viability ([1]; first compound 0.1 µM) | relative viability ([1]; first compound 0.3162 µM) | relative viability ([1]; first compound 1 µM) | relative viability ([2]; first compound 0.01 µM) | relative viability ([2]; first compound 0.03162 µM) | relative viability ([2]; first compound 0.1 µM) | relative viability ([2]; first compound 0.3162 µM) | relative viability ([2]; first compound 1 µM) | relative viability ([3]; first compound 0.04 µM) | relative viability ([3]; first compound 0.1265 µM) | relative viability ([3]; first compound 0.4 µM) | relative viability ([3]; first compound 1.265 µM) | relative viability ([3]; first compound 4 µM) | relative viability ([4]; first compound 0.04 µM) | relative viability ([4]; first compound 0.1265 µM) | relative viability ([4]; first compound 0.4 µM) | relative viability ([4]; first compound 1.265 µM) | relative viability ([4]; first compound 4 µM)
1 | NCI-H1437 | 0.915 | 0.96 | 0.842 | 0.901 | 0.359 | 0.4 | 0.282 | 0.222 | 0.214 | 0.434 | 0.492 | 0.539 | 0.382 | 0.304 | 0.3 | 0.31 | 0.274 | 0.252 | 0.213
2 | NCI-H1651 | 0.903 | 0.831 | 0.896 | 0.909 | 0.538 | – | 0.504 | 0.464 | 0.282 | 0.752 | 0.828 | 0.807 | 0.759 | 0.561 | 0.543 | 0.525 | 0.594 | 0.541 | 0.538
3 | NCI-H1666 | 0.872 | – | 1.07 | 0.965 | 0.365 | 0.369 | 0.537 | 0.27 | 0.257 | 0.799 | 0.841 | 0.903 | 0.784 | 0.71 | 0.882 | 0.893 | 0.979 | 0.833 | 0.514
4 | NCI-H1734 | 0.598 | 0.7 | 0.602 | 0.603 | 0.455 | 0.45 | 0.491 | 0.337 | 0.264 | 0.566 | 0.626 | 0.624 | 0.533 | 0.394 | 0.407 | 0.406 | 0.394 | 0.406 | 0.399
5 | NCI-H1755 | 0.906 | 0.83 | 0.869 | 0.791 | 0.412 | 0.392 | 0.346 | 0.306 | 0.281 | 0.852 | 0.726 | 0.718 | 0.72 | 0.668 | 0.409 | 0.432 | 0.437 | 0.371 | 0.402

From the supplement of paper PMC10307832
